GI50 and TGI data for six molecules are collected here from PubChem BioAssay (NCI).

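Following 48 hours of exposure in 96-well plates, responses at five concentrations were used to interpolate endpoints linearly. Here, GI50 denotes the concentration required for 50% inhibition of growth. TGI marks complete inhibition of growth.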

Broadly, the GI50 is the concentration giving 50% growth inhibition. Usually TGI stands for the concentration at which net growth stops.

Test in all cases: DTP human tumour cell line panel, 48 h
In assay [1] the test system is UACC-257 melanoma.
Assay [2] concerns MALME-3M melanoma.
Assay [3] deals with LOX IMVI melanoma.
The subject of assay [4] is RXF 393 renal.
The subject of assay [5] is SK-OV-3 ovarian.
Assay [6] has as its system MDA-MB-231 breast.
The test system of assay [7] is NCI-H460 lung.
The subject of assay [8] is T-47D breast.
For assay [9], the system named is KM12 colon.
The subject of assay [10] is HL-60(TB) leukemia.

Consider `O=C1OC(c2ccccc2)(c2cc(Br)c(O)c(Br)c2)c2ccccc21` (stereo not given), for which the GI50 was 35.4 µM in assay [1]; 25.3 µM in assay [2]; 16.3 µM in assay [3]; 18.6 µM in assay [4]; 21.4 µM in [5]; 25.9 µM in assay [6]. Moreover, the GI50 in [7] is 19.6 µM; in assay [8], 26.8 µM; in assay [9], 21.9 µM; in assay [10], 22.8 µM. The TGI is over 100 µM in assay [1]; 77.5 µM in [2]; 33 µM in assay [3]; 36.4 µM in assay [4]; 53.7 µM in assay [5]; 86.1 µM in assay [6]. In addition, the total growth inhibition concentration (TGI) was 43.9 µM in assay [7], over 100 µM in assay [8], 60.5 µM in [9] and 67.8 µM in [10].

Regarding `CNC(=O)Oc1cc(C)c(/C=C/c2cncc(C(=O)NC)c2)c(C)c1`, the GI50 in assay [1] was 24.7 µM; in assay [2], 13.6 µM; in assay [3], 15.9 µM; in assay [4], 14.1 µM; in assay [5], over 25 µM; in assay [6], over 25 µM. For the same molecule, the GI50 in assay [7] was over 25 µM; in assay [8], over 25 µM; in assay [9], over 25 µM; in [10] it was over 21.2 µM. For the same molecule, the TGI in assay [1], in assay [2], in assay [3], in assay [4], in assay [5] and in assay [6] was over 25 µM throughout. The TGI in assay [7], in [8], in assay [9] and in [10] was over 25 µM throughout.

In the case of `O=S(=O)(Nc1cc(Cl)ccc1Cl)c1ccc(-c2cnc(C3CC3)o2)cc1`, the GI50 was 15 µM in assay [1]; 10.8 µM in assay [2]; 3.3 µM in assay [3]; 1.06 µM in assay [4]; 5.3 µM in assay [5]; 4.31 µM in [6]. For the same molecule, the GI50 was 0.769 µM in [7], 1.94 µM in assay [8], 0.704 µM in assay [9] and 0.468 µM in assay [10]. In addition, the TGI in [1] was 56.4 µM; in assay [2], 57.6 µM; in assay [3] it was over 100 µM; in assay [4], 6.65 µM; in assay [5] it was 85.5 µM; in [6], 43 µM. Also, the TGI was 17.4 µM in assay [7], over 100 µM in assay [8], 24.4 µM in [9] and 16.4 µM in assay [10].

As to `CSc1ncnc2c1ncn2C1OC(CO)C(O)OC1O` (stereo not given), the TGI in assay [1] is 15.2 µM; in [2], 70.5 µM; in assay [3], 15.4 µM; in assay [4], 38 µM; in assay [5], over 100 µM; in [6], 14.6 µM. The TGI was 16 µM in assay [7], 17.7 µM in assay [8], 36.8 µM in assay [9] and 11.7 µM in [10].

Turning to `COC(=O)[C@H](Cc1ccc(O)cc1)NC(=O)[C@@H](OC)[C@@H]1Cc2cc3cc(OC4CC(OC5CC(O)C(O)C(C)O5)C(O)C(C)O4)c(C)c(O)c3c(O)c2C(=O)[C@H]1OC1CC(OC2CC(OC3CC(C)(O)C(O)C(C)O3)C(O)C(C)O2)C(O)C(C)O1` (stereo not given in full), the GI50 in [1] was 0.124 µM; in assay [2], 0.0397 µM; in assay [3] it was 0.0316 µM; in assay [4], 0.0544 µM; in assay [5] it was 0.185 µM; in assay [6], 0.196 µM. Also, the GI50 was 0.0604 µM in assay [7], 0.0873 µM in assay [8], 0.106 µM in assay [9] and 0.614 µM in assay [10]. Also, the TGI in assay [1] is 4.39 µM; in assay [2], 0.492 µM; in [3] it was over 25 µM; in assay [4], 0.292 µM; in assay [5], over 25 µM; in [6], over 25 µM. Also, the TGI in assay [7], in assay [8], in assay [9] and in [10] was over 25 µM each time.

Take `COC1CC(NC(=O)C(F)(F)F)C(OC(C)=O)C(C)O1` (stereo not given): the total growth inhibition concentration (TGI) in [1], in assay [2], in [3], in [4], in [5] and in assay [6] was over 100 µM throughout. Besides, the total growth inhibition concentration (TGI) in assay [7], in [8], in assay [9] and in [10] was over 100 µM in each case.
